In patent publication US9815796B2 (Merck Sharp & Dohme Corp., priority 2013, dated 2017) one finds Ki data, which are given here for 31 compounds.

Molecules are shown by their SMILES.

Chain of human PDE2A1 (O00408 other isoform, or with tags, fused parts or gaps): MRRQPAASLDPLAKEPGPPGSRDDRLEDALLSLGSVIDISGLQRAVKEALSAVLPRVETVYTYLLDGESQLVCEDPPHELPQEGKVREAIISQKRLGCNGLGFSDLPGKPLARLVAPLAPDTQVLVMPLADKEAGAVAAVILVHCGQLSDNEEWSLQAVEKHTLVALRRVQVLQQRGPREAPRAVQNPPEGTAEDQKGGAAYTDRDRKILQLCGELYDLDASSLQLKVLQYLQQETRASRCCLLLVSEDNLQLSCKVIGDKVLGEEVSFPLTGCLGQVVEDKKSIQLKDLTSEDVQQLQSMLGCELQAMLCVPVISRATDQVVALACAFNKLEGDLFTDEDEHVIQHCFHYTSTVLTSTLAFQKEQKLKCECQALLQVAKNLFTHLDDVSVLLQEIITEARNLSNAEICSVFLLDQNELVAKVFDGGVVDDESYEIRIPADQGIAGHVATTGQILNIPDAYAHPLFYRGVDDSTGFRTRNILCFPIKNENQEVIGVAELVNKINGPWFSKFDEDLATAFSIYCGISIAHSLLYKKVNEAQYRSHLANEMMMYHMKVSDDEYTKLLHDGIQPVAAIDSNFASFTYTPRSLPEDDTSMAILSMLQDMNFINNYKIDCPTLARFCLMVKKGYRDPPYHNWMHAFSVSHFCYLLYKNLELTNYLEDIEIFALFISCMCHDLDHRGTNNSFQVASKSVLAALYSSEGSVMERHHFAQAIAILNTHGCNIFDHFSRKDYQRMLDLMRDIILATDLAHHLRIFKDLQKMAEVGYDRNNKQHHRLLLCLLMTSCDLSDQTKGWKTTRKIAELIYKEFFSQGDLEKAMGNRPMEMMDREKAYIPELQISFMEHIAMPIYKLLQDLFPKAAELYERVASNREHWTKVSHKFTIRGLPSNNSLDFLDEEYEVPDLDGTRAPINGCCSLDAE

The experiment has as its target human PDE2A1 (Homo sapiens (Human), UniProt O00408). In words: IMAP FP PDE selectivity panel, human PDE2A1. Format: biochemical. The conditions noted are these: Human PDE2, Lab B; read-out: Human PDE2 Ki (nM) - Lab B. In short, it runs like this: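 IMAP FP format: substrate 50 nM FAM-cAMP plus 1000 nM cGMP, enzyme (insect-cell GST-tagged human PDE2A1) at ~20% conversion, 60 min reaction at room temperature. Apparent inhibition constants calculated from parallel/perpendicular fluorescence with KM 10,000 nM.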
With `CC(NC(=O)c1cc(=O)[nH]c(C2CC2)n1)c1ccc(C2(C(F)(F)F)CC2)cc1` (single isomer, unassigned) [Example 688, (S)- or (R)-2-cyclopropyl-6-oxo-N-(1-(4-(1-(trifluoromethyl)cyclopropyl)phenyl)-ethyl)-1,6-dihydropyrimidine-4-carboxamide], the Ki is above 2960 nM.

Consider `C[C@@H](NC(=O)c1cc(=O)[nH]c(-c2ccccc2)n1)c1cc(F)c(C(F)(F)F)cc1F` [Example 550, N-{(1R)-1-[2,5-difluoro-4-(trifluoromethyl)phenyl]ethyl}-6-oxo-2-phenyl-1,6-dihydropyrimidine-4-carboxamide], for which the Ki stood at 17 nM.

For `Cc1nc(C(=O)NC2(c3ccc(C(F)(F)F)cc3)CC2(C)C)cc(=O)[nH]1` (stereo not shown) [Example 681, N-(2,2-dimethyl-1-(4-(trifluoromethyl)phenyl)cyclopropyl)-2-methyl-6-oxo-1,6-dihydropyrimidine-4-carboxamide], the Ki came to 7 nM.

On to `Cc1nc(C(=O)N[C@@H](c2ccc3c(c2)OC(F)(F)O3)C2(C)CC2)cc(=O)[nH]1` [Example 634, N-[(R)-(2,2-difluoro-1,3-benzodioxol-5-yl)(1-methylcyclopropyl)methyl]-2-methyl-6-oxo-1,6-dihydropyrimide-4-carboxamide], for which the Ki was determined as 29 nM.

In the case of `C[C@@H](NC(=O)c1cc(=O)[nH]c(-c2ncccn2)n1)c1ccc2c(c1)OC(F)(F)O2` [Example 587, N-[(1R)-1-(2,2-difluoro-1,3-benzodioxol-5-yl)ethyl]-6-oxo-1,6-dihydro-2,2′-bipyrimidine-4-carboxamide], the Ki amounted to 71 nM.

With `CCC(C)(NC(=O)c1cc(=O)[nH]c(C)n1)c1ccc(C(F)(F)F)cc1` (single isomer, unassigned) [Example 669, (R)- or (S)-2-methyl-N-{1-methyl-1-[4-(trifluoromethyl)phenyl]propyl}-6-oxo-1,6-dihydropyrimidine-4-carboxamide], the Ki came out at 15 nM.

On to `O=C(N[C@@H]1CCCc2cc(C(F)(F)F)ccc21)c1cc(=O)[nH]c(-c2ccccc2)n1` [Example 552, 6-oxo-2-phenyl-N-[(1R)-6-(trifluoromethyl)-1,2,3,4-tetrahydronaphthalen-1-yl]-1,6-dihydropyrimidine-4-carboxamide], for which the Ki came to 96 nM.

With `CC(NC(=O)c1cc(=O)[nH]c(-c2ncccn2)n1)c1ccc(C2(C(F)(F)F)CC2)cc1` (single isomer, unassigned) [Example 693, (R)- or (S)-6-oxo-2-(pyrimidin-2-yl)-N-(1-(4-(1-(trifluoromethyl)cyclopropyl)phenyl)-ethyl)-1,6-dihydropyrimidine-4-carboxamide], the Ki was 63 nM.

As to `Cc1nc(C(=O)N[C@@H](c2ccc(OC(F)F)c(F)c2)C(C)(C)C)cc(=O)[nH]1` [Example 630, N-{(1R)-1-[4-(difluoromethoxy)-3-fluorophenyl]-2,2-dimethylpropyl}-2-methyl-6-oxo-1,6-dihydropyrimidine-4-carboxamide], the Ki came to 5.1 nM.

Regarding `CCc1nc(C(=O)N[C@H](C)c2ccc(OC(F)(F)F)c(F)c2)cc(=O)[nH]1` [Example 598, 2-ethyl-N-{(1R)-1-[3-fluoro-4-(trifluoromethoxy)phenyl]ethyl}-6-oxo-1,6-dihydropyrimidine-4-carboxamide], the Ki was found to be 3.7 nM.

As for `CC(C)(C)C(NC(=O)c1cc(=O)[nH]c(-c2ncco2)n1)c1ccc(C(F)(F)F)cc1` (single isomer, unassigned) [Example 683, (S)- or (R)-N-(2,2-dimethyl-1-(4-(trifluoromethyl)phenyl)propyl)-2-(oxazol-2-yl)-6-oxo-1,6-dihydropyrimidine-4-carboxamide], the Ki is above 2960 nM.

Regarding `Cc1nc(C(=O)NC(C)(C)c2ccc(C(F)F)c(F)c2)cc(=O)[nH]1` [Example 654, N-{1-[4-(difluoromethyl)-3-fluorophenyl]-1-methylethyl}-2-methyl-6-oxo-1,6-dihydropyrimidine-4-carboxamide], the inhibition constant (Ki) was determined as 72 nM.

In the case of `Cc1nc(C(=O)NC(C)(C)c2ccc(C(F)(F)F)c(Cl)c2)cc(=O)[nH]1` [Example 641, N-{1-[3-chloro-4-(trifluoromethyl)phenyl]-1-methylethyl}-2-methyl-6-oxo-1,6-dihydropyrimidine-4-carboxamide], the inhibition constant Ki is 32 nM.

`CCc1nc(C(=O)N[C@@H](c2ccc(C(F)(F)F)c(F)c2)C2CC2)cc(=O)[nH]1` [Example 603, N-{(R)-cyclopropyl[3-fluoro-4-(trifluoromethyl)phenyl]methyl}-2-ethyl-6-oxo-1,6-dihydropyrimidine-4-carboxamide]: the Ki was 7.2 nM.

`CC(C)(C)[C@@H](NC(=O)c1cc(=O)[nH]c(-c2ccccc2)n1)c1ccc(C2CC2)c(F)c1` [Example 539, N-[(1R)-1-(4-cyclopropyl-3-fluorophenyl)-2,2-dimethylpropyl]-6-oxo-2-phenyl-1,6-dihydropyrimidine-4-carboxamide]: the Ki is 1.2 nM.

Turning to `COc1cc(C(F)(F)F)ccc1C(C)(C)NC(=O)c1cc(=O)[nH]c(C)n1` [Example 594, N-{1-[2-methoxy-4-(trifluoromethyl)phenyl]-1-methylethyl}-2-methyl-6-oxo-1,6-dihydropyrimidine-4-carboxamide], the Ki was determined as 120 nM.

As to `CC(C)(C)[C@@H](NC(=O)c1cc(=O)[nH]c(-c2ncccn2)n1)c1ccc(C2CC2)cc1` [Example 557, N-[(1R)-1-(4-cyclopropylphenyl)-2,2-dimethylpropyl]-6-oxo-1,6-dihydro-2,2′-bipyrimidine-4-carboxamide], the Ki is 8.9 nM.

As to `Cc1nc(C(=O)N[C@@H](c2ccc(C(F)F)cc2)C(C)C)cc(=O)[nH]1` [Example 648, N-{(1R)-1-[4-(difluoromethyl)phenyl]-2-methylpropyl}-2-methyl-6-oxo-1,6-dihydropyrimidine-4-carboxamide], the Ki worked out at 34 nM.

For `Cc1nc(C(=O)N[C@@H](c2ccc(C(F)F)c(F)c2)C(C)(C)C)cc(=O)[nH]1` [Example 646, N-{(1R)-1-[4-(difluoromethyl)-3-fluorophenyl]-2,2-dimethylpropyl}-2-methyl-6-oxo-1,6-dihydropyrimidine-4-carboxamide], the Ki was 15 nM.

On to `CC(NC(=O)c1cc(=O)[nH]c(-c2ccccc2)n1)c1ccc(C2(C(F)(F)F)CC2)cc1` (single isomer, unassigned) [Example 690, (S)- or (R)-6-oxo-2-phenyl-N-(1-(4-(1-(trifluoromethyl)cyclopropyl)phenyl)-ethyl)-1,6-dihydropyrimidine-4-carboxamide], for which the Ki is above 2960 nM.

As to `O=C(N[C@@H]1COCc2cc(C(F)(F)F)ccc21)c1cc(=O)[nH]c(-c2ccccc2)n1` [Example 551, 6-oxo-2-phenyl-N-[(4S)-7-(trifluoromethyl)-3,4-dihydro-1H-isochromen-4-yl]-1,6-dihydropyrimidine-4-carboxamide], the Ki stood at 157 nM.

Consider `CC(C)[C@@H](NC(=O)c1cc(=O)[nH]c(-c2ncccn2)n1)c1ccc(OC(F)(F)F)c(Br)c1` [Example 580, N-{(1R)-1-[3-bromo-4-(trifluoromethoxy)phenyl]-2-methylpropyl}-6-oxo-1,6-dihydro-2,2′-bipyrimidine-4-carboxamide], for which the Ki stood at 38 nM.

Consider `CC(C)(C)[C@@H](NC(=O)c1cc(=O)[nH]c(-c2ccccc2)n1)c1ccc(SC(F)(F)F)cc1` [Example 541, N-[(1R)-2,2-dimethyl-1-{4-[(trifluoromethyl)sulfanyl]phenyl}propyl]-6-oxo-2-phenyl-1,6-dihydropyrimidine-4-carboxamide], for which the Ki was 1.3 nM.

Regarding `CC(C)(NC(=O)c1cc(=O)[nH]c(-c2ncccn2)n1)c1ccc2c(c1)OC(F)(F)O2` [Example 588, N-[1-(2,2-difluoro-1,3-benzodioxol-5-yl)-1-methylethyl]-6-oxo-1,6-dihydro-2,2′-bipyrimidine-4-carboxamide], the Ki came to 303 nM.

Regarding `O=C(NC1(c2ccc(S(F)(F)(F)(F)F)cc2)CC1)c1cc(=O)[nH]c(-c2ncccn2)n1` [Example 570, 6-oxo-N-{1-[4-(pentafluoro-λ^6-sulfanyl)phenyl]cyclopropyl}-1,6-dihydro-2,2′-bipyrimidine-4-carboxamide], the Ki was determined as 21 nM.

On to `Cc1nc(C(=O)N[C@]2(c3ccc(C(C)C)cc3)C[C@H]2C)cc(=O)[nH]1` (single isomer, unassigned) [Example 665, 2-methyl-N-{2-methyl-1-[4-(1-methylethyl)phenyl]cyclopropyl}-6-oxo-1,6-dihydropyrimidine-4-carboxamide], for which the Ki turned out to be 4.95 nM.

Consider `CC(C)(NC(=O)c1cc(=O)[nH]c(-c2ncccn2)n1)c1ccc(C(F)(F)F)cc1F` [Example 573, N-{1-[2-fluoro-4-(trifluoromethyl)phenyl]-1-methylethyl}-6-oxo-1,6-dihydro-2,2′-bipyrimidine-4-carboxamide], for which the Ki turned out to be 88 nM.

With `C[C@](CO)(NC(=O)c1cc(=O)[nH]c(-c2ccccc2)n1)c1ccc(C(F)(F)F)cc1` [Example 642, N-{(1S)-2-hydroxy-1-methyl-1-[4-(trifluoromethyl)phenyl]ethyl}-6-oxo-2-phenyl-1,6-dihydropyrimidine-4-carboxamide], the Ki amounted to 4.8 nM.

Consider `O=C(N[C@@H](c1ccc(C2CC2)c(F)c1)C1CC1)c1cc(=O)[nH]c(-c2ccccc2)n1` [Example 546, N-[(R)-cyclopropyl(4-cyclopropyl-3-fluorophenyl)methyl]-6-oxo-2-phenyl-1,6-dihydropyrimidine-4-carboxamide], for which the Ki was 3.8 nM.

As to `Cc1nc(C(=O)NC2(c3ccc(OC(C)(C)C)cc3)CC2)cc(=O)[nH]1` [Example 626, N-[1-(4-tert-butoxyphenyl)cyclopropyl]-2-methyl-6-oxo-1,6-dihydropyrimidine-4-carboxamide], the Ki was 58 nM.

In the case of `CCc1nc(C(=O)NC(C)(C)c2ccc(C(F)(F)F)cc2)cc(=O)[nH]1` [Example 600, 2-ethyl-N-{1-methyl-1-[4-(trifluoromethyl)phenyl]ethyl}-6-oxo-1,6-dihydropyrimidine-4-carboxamide], the Ki was 21 nM.

One may read the Ki as the equilibrium dissociation constant of an inhibitor or competing ligand from its target.
